Among the test systems are CCRF-CEM leukemia; T-47D breast; SF-268 CNS; MDA-MB-231 breast; NCI-H23 lung; MDA-N; SNB-75 CNS; LOX IMVI melanoma; A498 renal; RXF 393 renal; ACHN renal; TK-10 renal; OVCAR-3 ovarian; HT29 colon; RPMI-8226 leukemia; OVCAR-5 ovarian; SN12C renal; IGROV1 ovarian; M14 melanoma; SR leukemia.
What all share (assay): NCI anticancer screen, dose series, 48 h

Each structure is given as a SMILES string.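 In this assay, cells in 96-well plates receive the compound at five concentrations for 48 hours. Endpoints are linearly interpolated between the surrounding concentrations. TGI marks complete inhibition of growth.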

On to `CC(=O)C1=C(C)N2C(=NC3=C(CCc4ccccc43)C2c2ccc(Cl)cc2)S1` (configuration not stated), for which the TGI is > 96.6 µM in the assay on CCRF-CEM leukemia; > 100 µM with T-47D breast; > 100 µM in the assay with SF-268 CNS; > 100 µM with MDA-MB-231 breast; > 100 µM in the assay with NCI-H23 lung; > 100 µM in the assay with MDA-N. In addition, the TGI with SNB-75 CNS is > 100 µM; with LOX IMVI melanoma, > 100 µM; with A498 renal, 51 µM; with RXF 393 renal, > 100 µM; in the assay with ACHN renal, > 100 µM; in the assay with TK-10 renal, > 100 µM. Also, the TGI was > 100 µM in the assay with OVCAR-3 ovarian; > 100 µM in the assay on HT29 colon; 12.8 µM in the assay with RPMI-8226 leukemia; > 100 µM in the assay with OVCAR-5 ovarian; > 100 µM in the assay on SN12C renal; > 100 µM with IGROV1 ovarian. In the assay with M14 melanoma, the TGI is > 100 µM.
With `CC(=O)OC(C(=O)NNC(=O)OC(C)(C)C)c1ccccc1` (configuration not stated), the TGI in the assay with T-47D breast, in the assay with SF-268 CNS, with SR leukemia, in the assay on MDA-MB-231 breast, with NCI-H23 lung and with MDA-N was > 100 µM each time. Moreover, the TGI in the assay on SNB-75 CNS, in the assay on RXF 393 renal, in the assay with ACHN renal, with TK-10 renal, in the assay with OVCAR-3 ovarian and in the assay with HT29 colon was > 100 µM each time. Moreover, the TGI in the assay on RPMI-8226 leukemia, in the assay on OVCAR-5 ovarian, with SN12C renal, in the assay on IGROV1 ovarian and with M14 melanoma was > 100 µM throughout.
Turning to `COc1ccc(C2OC2C(=O)C23CC4CC(CC(C4)C2)C3)cc1` (configuration not stated), the TGI with CCRF-CEM leukemia, in the assay with T-47D breast, in the assay with SF-268 CNS, in the assay with MDA-MB-231 breast, with NCI-H23 lung and in the assay on MDA-N was > 100 µM in each case. In addition, the TGI with LOX IMVI melanoma, with A498 renal, in the assay on RXF 393 renal, with ACHN renal, with TK-10 renal and in the assay with OVCAR-3 ovarian was > 100 µM each time. For the same molecule, the TGI with HT29 colon, in the assay with RPMI-8226 leukemia, in the assay on OVCAR-5 ovarian, in the assay with SN12C renal, with IGROV1 ovarian and in the assay with M14 melanoma was > 100 µM in each case.
Turning to `COC(=O)[C@@H](N1C(=O)c2ccccc2C1=O)C1(C)CC(Cl)=NO1` (some centres not stated), the TGI in the assay with CCRF-CEM leukemia was > 100 µM; with T-47D breast it was > 100 µM; in the assay on SF-268 CNS, 76.9 µM; in the assay with MDA-MB-231 breast, 60.3 µM; in the assay on NCI-H23 lung, > 100 µM; in the assay on MDA-N it was > 100 µM. Besides, the TGI with SNB-75 CNS was 35.9 µM; in the assay with A498 renal it was 99.7 µM; with RXF 393 renal, > 100 µM; with ACHN renal, > 100 µM; in the assay with TK-10 renal, 82.4 µM; in the assay on OVCAR-3 ovarian, > 100 µM. The TGI in the assay on HT29 colon was > 100 µM; with RPMI-8226 leukemia it was > 100 µM; in the assay on OVCAR-5 ovarian, > 100 µM; in the assay on SN12C renal, > 100 µM; in the assay with IGROV1 ovarian it was 58.2 µM; in the assay with M14 melanoma it was > 100 µM.
Consider `CC(C)C1CC(CO)(CNc2nc(N)nc(Cl)c2C=O)C1` (configuration not stated), for which the TGI in the assay on CCRF-CEM leukemia was 6.36 µM; in the assay with T-47D breast, > 100 µM; with SF-268 CNS, > 23.7 µM; in the assay on MDA-MB-231 breast it was 5.14 µM; with NCI-H23 lung, 4.64 µM; in the assay on MDA-N it was 9.31 µM. In addition, the TGI was 15.4 µM in the assay with SNB-75 CNS; 3.81 µM with LOX IMVI melanoma; 56.1 µM in the assay on A498 renal; 28.3 µM with RXF 393 renal; 22.8 µM in the assay on ACHN renal; > 100 µM in the assay with TK-10 renal. Also, the TGI in the assay with OVCAR-3 ovarian was 8.77 µM; in the assay on HT29 colon, 6.42 µM; with RPMI-8226 leukemia, > 100 µM; in the assay on OVCAR-5 ovarian, 96.9 µM; with SN12C renal, 28.5 µM; in the assay on IGROV1 ovarian, 3.52 µM. For the same molecule, the TGI with M14 melanoma turned out to be 3.24 µM.
In the case of `COc1ccc(CC(COS(=O)(=O)c2ccc(C)cc2)NS(=O)(=O)c2ccc(C)cc2)cc1` (configuration not stated), the TGI was 21 µM in the assay with T-47D breast; 39 µM with SF-268 CNS; > 84.5 µM with MDA-MB-231 breast; 40.8 µM with NCI-H23 lung; > 62.6 µM in the assay on MDA-N; 28.4 µM with SNB-75 CNS. Also, the TGI was > 100 µM in the assay with LOX IMVI melanoma; 35.8 µM with A498 renal; 17.1 µM in the assay on RXF 393 renal; 49.2 µM with ACHN renal; 43.6 µM with TK-10 renal; 27.8 µM in the assay with OVCAR-3 ovarian. Moreover, the TGI with HT29 colon is > 50.9 µM; in the assay with RPMI-8226 leukemia it was > 100 µM; in the assay with OVCAR-5 ovarian, 39.9 µM; with SN12C renal, 36.1 µM; in the assay with IGROV1 ovarian, 30.1 µM; in the assay with M14 melanoma, 29.6 µM.
On to `O=C(c1ccccc1)N1N=C(C(F)(F)F)CC1(O)C(F)(F)F` (configuration not stated), for which the TGI with CCRF-CEM leukemia, in the assay on T-47D breast, with SF-268 CNS, in the assay on SR leukemia, in the assay with MDA-MB-231 breast and with NCI-H23 lung was > 100 µM in each case. Besides, the TGI in the assay on MDA-N, in the assay on SNB-75 CNS, with LOX IMVI melanoma, in the assay with A498 renal, with ACHN renal and in the assay on TK-10 renal was > 100 µM in each case. In addition, the TGI in the assay with OVCAR-3 ovarian, in the assay with HT29 colon, in the assay on RPMI-8226 leukemia, in the assay with OVCAR-5 ovarian, in the assay with SN12C renal and with M14 melanoma was > 100 µM throughout.

These data come from PubChem BioAssay (NCI).
